A word on the EC50: it is the concentration that produces a half-maximal response. A lower EC50 goes with higher potency in that assay. By IC50 is commonly meant the point on the concentration scale where inhibition reaches its midpoint. A high value points to weaker potency in that assay.

Data on 22 compounds can be found in patent publication US12110294B2, “CD73 compounds” (Gilead Sciences, Inc., priority 2020, dated 2024).

SMILES strings stand for the structures.

The target of experiment [1] is T1, CD73 activity in MDA-MB-231-GFP cells (Homo sapiens, UniProt P21589).
T1 construct: endogenous in cells; host or cells: MDA-MB-231-GFP cells
T1 sequence (P21589 27-549): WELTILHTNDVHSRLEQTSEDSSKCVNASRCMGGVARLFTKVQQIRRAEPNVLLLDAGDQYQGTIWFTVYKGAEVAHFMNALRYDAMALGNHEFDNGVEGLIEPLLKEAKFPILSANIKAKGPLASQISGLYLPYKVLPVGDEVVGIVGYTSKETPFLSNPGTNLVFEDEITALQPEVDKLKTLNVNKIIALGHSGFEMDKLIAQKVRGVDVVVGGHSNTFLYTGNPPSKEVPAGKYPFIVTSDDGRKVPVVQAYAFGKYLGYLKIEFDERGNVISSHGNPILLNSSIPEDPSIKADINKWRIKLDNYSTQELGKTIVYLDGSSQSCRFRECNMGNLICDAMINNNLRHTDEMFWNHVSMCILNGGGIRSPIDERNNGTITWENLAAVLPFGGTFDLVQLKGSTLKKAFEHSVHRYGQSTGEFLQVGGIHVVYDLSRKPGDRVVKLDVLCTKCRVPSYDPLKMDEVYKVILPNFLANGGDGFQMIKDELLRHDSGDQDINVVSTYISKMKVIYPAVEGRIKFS
The experiment in a line: MDA-MB-231 Cell Based CD73 Activity Assay (DMEM). The settings on record: 3000 cells per well, DMEM medium with 10% human plasma, overnight compound treatment, AMP 200 uM.

Another experiment has as its target T2, CD73 (Homo sapiens, UniProt P21589).
T2 construct: purchased R&D system
T2 sequence (P21589 27-549): T1 sequence (P21589 27-549)
Type of experiment: biochemical. The settings on record: 1 mM NaH2PO4 in enzyme buffer, final AMP 15 uM, final CD73 0.3 nM.

For `CN(C)C(=O)c1cn2nc(-c3c[nH]c(=O)[nH]c3=O)cc([C@H]3C[C@@H]3c3ccc(F)cc3)c2n1` (racemic) [Example 197, 6-(2,4-dioxo-1H-pyrimidin-5-yl)-8-[(1S,2S)-2-(4-fluorophenyl)cyclopropyl]-N,N-dimethyl-imidazo[1,2-b]pyridazine-2-carboxamide], in experiment [1], the EC50 was 30.2 nM. This compound also had an IC50 on CD73 of 11 nM.

Take `O=C(c1cn2nc(-c3c[nH]c(=O)[nH]c3=O)cc([C@H]3C[C@@H]3c3ccc(F)cc3)c2n1)N1C[C@@H](F)[C@@H](F)C1` (racemic) [Example 200, 5-[2-[(3S,4R)-3,4-difluoropyrrolidine-1-carbonyl]-8-[(1S,2S)-2-(4-fluorophenyl)cyclopropyl]imidazo[1,2-b]pyridazin-6-yl]-1H-pyrimidine-2,4-dione]: the response in experiment [1] was half-maximal at 809 nM (EC50). Also, the concentration for half-maximal inhibition (IC50) against CD73 was > 250 nM.

In turn, `O=c1[nH]cc(-c2cc([C@H]3C[C@@H]3c3ccnc(C(F)(F)F)n3)c3nccn3n2)c(=O)[nH]1` (racemic) [Example 271, 5-(8-((2S,2S)-2-(2-(trifluoromethyl)pyrimidin-4-yl)cyclopropyl)imidazo[1,2-b]pyridazin-6-yl)pyrimidine-2,4(1H,3H)-dione] returned an EC50 in experiment [1] of 102 nM. The compound further had an IC50 against CD73 of 33.6 nM.

`O=c1[nH]cc(-c2cc([C@H]3C[C@@H]3c3ccc(OC(F)(F)F)cc3)c3ncc(F)n3n2)c(=O)[nH]1` (racemic) [Example 277, 5-(3-fluoro-8-((2S,2S)-2-(4-(trifluoromethoxy)phenyl)cyclopropyl)imidazo[1,2-b]pyridazin-6-yl)pyrimidine-2,4(1H,3H)-dione] displayed an EC50 in experiment [1] of 79 nM. In addition, inhibition against CD73 was half-maximal at 3.77 nM (IC50).

For the compound `NC(=O)c1ccc([C@H]2C[C@@H]2c2cc(-c3c[nH]c(=O)[nH]c3=O)nn3ccnc23)cc1` (racemic) [Example 283, 4-((2S,2S)-2-(6-(2,4-dioxo-1,2,3,4-tetrahydropyrimidin-5-yl)imidazo[1,2-b]pyridazin-8-yl)cyclopropyl)benzamide], it took 2.75 nM to reach a half-maximal effect in experiment [1] (EC50). In addition, the midpoint of inhibition against CD73, the IC50, lay at 0.87 nM.

In the case of `O=c1[nH]cc(-c2cc([C@H]3C[C@@H]3c3ccc4cnn(CCC(F)(F)F)c4c3)c3nccn3n2)c(=O)[nH]1` (racemic) [Example 361, 5-(8-((1S,2S)-2-(1-(3,3,3-trifluoropropyl)-1H-indazol-6-yl)cyclopropyl)imidazo[1,2-b]pyridazin-6-yl)pyrimidine-2,4(1H,3H)-dione], in experiment [1], a half-maximal effect (EC50) was put at 2.53 nM. Moreover, inhibition against CD73 was half-maximal at 2.72 nM (IC50).

With `O=c1[nH]cc(-c2cc([C@H]3C[C@@H]3c3cc4c(cn3)cnn4CC(F)(F)F)c3ncc(Cl)n3n2)c(=O)[nH]1` (racemic) [Example 471, 5-(3-chloro-8-((2S,2S)-2-(1-(2,2,2-trifluoroethyl)-1H-pyrazolo[4,3-c]pyridin-6-yl)cyclopropyl)imidazo[1,2-b]pyridazin-6-yl)pyrimidine-2,4(1H,3H)-dione], in experiment [1], the EC50 worked out at 0.24 nM.

The compound `CC1(C)C(=O)N(CC(F)(F)F)c2cc([C@H]3C[C@@H]3c3cc(-c4c[nH]c(=O)[nH]c4=O)nn4ccnc34)ncc21` (racemic) [Example 718, 5-[8-[(1S,2S)-2-[3,3-dimethyl-2-oxo-1-(2,2,2-trifluoroethyl)pyrrolo[3,2-c]pyridin-6-yl]cyclopropyl]imidazo[1,2-b]pyridazin-6-yl]-1H-pyrimidine-2,4-dione] registered an EC50 in experiment [1] of 0.33 nM.

As for `O=c1[nH]cc(-c2cc([C@H]3C[C@@H]3c3cc(OCC(F)(F)F)c4ncccc4c3)c3nccn3n2)c(=O)[nH]1` (racemic) [Example 732, 5-(8-((2S,2S)-2-(8-(2,2,2-trifluoroethoxy)quinolin-6-yl)cyclopropyl)imidazo[1,2-b]pyridazin-6-yl)pyrimidine-2,4(1H,3H)-dione], in experiment [1], the EC50 was determined as 2.52 nM.

Take `O=C1N(CC2(F)CC2)c2cc([C@H]3C[C@@H]3c3cc(-c4c[nH]c(=O)[nH]c4=O)nn4c(F)cnc34)ccc2C12CC2` (racemic) [Example 735, 5-(3-fluoro-8-((2S,2S)-2-(1′-((1-fluorocyclopropyl)methyl)-2′-oxospiro[cyclopropane-1,3′-indolin]-6′-yl)cyclopropyl)imidazo[1,2-b]pyridazin-6-yl)pyrimidine-2,4(1H,3H)-dione]: in experiment [1], the EC50 amounted to 0.38 nM.

`O=C1N(CC(F)(F)F)c2cc([C@H]3C[C@@H]3c3cc(-c4c[nH]c(=O)[nH]c4=O)nn4ccnc34)c(F)cc2C12CC2` (racemic) [Example 748, 5-(8-((2S,2S)-2-(5′-fluoro-2′-oxo-1′-(2,2,2-trifluoroethyl)spiro[cyclopropane-1,3′-indolin]-6′-yl)cyclopropyl)imidazo[1,2-b]pyridazin-6-yl)pyrimidine-2,4(1H,3H)-dione] had an EC50 in experiment [1] of 1.76 nM.

For `O=C(c1ccc([C@H]2C[C@@H]2c2cc(-c3c[nH]c(=O)[nH]c3=O)nn3c(F)cnc23)cc1)N1CC(F)(F)C1` (single isomer, unassigned) [Example 313], a half-maximal response in experiment [1] (EC50) required 9.78 nM.

For the compound `O=c1[nH]cc(-c2cc([C@H]3C[C@@H]3c3cnn(C(F)F)c3)c3ncc(F)n3n2)c(=O)[nH]1` (single isomer, unassigned) [Example 371], it took 17.9 nM to reach a half-maximal effect in experiment [1] (EC50).

As for `O=c1[nH]cc(-c2cc([C@H]3C[C@@H]3c3ccc(OC(F)(F)F)cn3)c3nccn3n2)c(=O)[nH]1` (single isomer, unassigned) [Example 373], in experiment [1], the concentration giving a half-maximal response (EC50) stood at 9.61 nM.

In turn, `O=C1N(CC(F)(F)F)c2cc([C@H]3C[C@@H]3c3cc(-c4c[nH]c(=O)[nH]c4=O)nn4ccnc34)ccc2C12CC2` (single isomer, unassigned) [Example 391] came in with an EC50 in experiment [1] of 0.1 nM.

In experiment [1], `O=C1N(CC(F)(F)F)c2cc([C@H]3C[C@@H]3c3cc(-c4c[nH]c(=O)[nH]c4=O)nn4c(Cl)cnc34)ccc2C12CC2` (single isomer, unassigned) [Example 740] showed an EC50 of 0.28 nM.

On to `O=C1N(CC(F)(F)F)c2cc([C@H]3C[C@@H]3c3cc(-c4c[nH]c(=O)[nH]c4=O)nn4c(Cl)c(Cl)nc34)ccc2C12CC2` (single isomer, unassigned) [Example 741], for which the midpoint of the response in experiment [1], the EC50, lay at 0.68 nM.

`O=c1[nH]cc(-c2cc(N3CCC4(C3)CC4(F)F)c3nccn3n2)c(=O)[nH]1` (stereo not shown) [Example 192]: on CD73, the IC50 was 6.41 nM.

In the case of `O=c1[nH]cc(-c2cc(N3CC(OCC(F)(F)F)C(F)(F)C3)c3nccn3n2)c(=O)[nH]1` (stereo not shown) [Example 203], on CD73, the midpoint of inhibition, the IC50, lay at 3.03 nM.

Take `COC(=O)[C@H]1[C@@H]2CN(c3cc(-c4c[nH]c(=O)[nH]c4=O)nn4ccnc34)C[C@@H]21` [Example 314, methyl (1R,5S,6r)-3-(6-(2,4-dioxo-1,2,3,4-tetrahydropyrimidin-5-yl)imidazo[1,2-b]pyridazin-8-yl)-3-azabicyclo[3.1.0]hexane-6-carboxylate]: the IC50 at CD73 was > 250 nM.

`O=c1[nH]cc(-c2cc([C@H]3C[C@@H]3c3cc4c(cn3)cnn4CC(F)(F)F)c3ncc(F)n3n2)c(=O)[nH]1` [Example 611, 5-(3-fluoro-8-((2S,2S)-2-(1-(2,2,2-trifluoroethyl)-1H-pyrazolo[4,3-c]pyridin-6-yl)cyclopropyl)imidazo[1,2-b]pyridazin-6-yl)pyrimidine-2,4(1H,3H)-dione] showed an EC50 in experiment [1] of 0.07 nM.

Regarding `O=c1[nH]cc(-c2cc(N3C[C@H]4CC[C@@H]3C4)c3nccn3n2)c(=O)[nH]1` [Example 642, 5-(8-((1R,4S)-2-azabicyclo[2.2.1]heptan-2-yl)imidazo[1,2-b]pyridazin-6-yl)pyrimidine-2,4(1H,3H)-dione], in experiment [1], the EC50 is 154 nM.
